Laboratory results: EPA's ToxRefDB 2

Legend:
mouse [1] = details: Subchronic oral toxicity in rodents, b6c3f1, Feed, dose end: 13 week, group: systemic
rat [2] = details: Subchronic oral toxicity in rodents, fischer, Feed, dose end: 13 week
mouse [3] = details: Subchronic dermal toxicity, b6c3f1, Topical, dose end: 13 week, group: systemic, systemic / pathology gross / sperm measure / sperm count
rat [4] = details: Subchronic dermal toxicity, fischer, Topical, dose end: 13 week, group: systemic, systemic / organ weight / kidney / relative to body weight
rat [5] = details: Prenatal developmental toxicity study, Oral, Gavage/Intubation, dose end: 15 GD, group: maternal
dog [6] = details: Subchronic oral toxicity in nonrodent, beagle, Feed, dose end: 90 day, group: cholinesterase, cholinesterase / cholinesterase / cholinesterase / plasma cholinesterase (che)
mouse [7] = details: Carcinogenicity; cd1; Oral; Feed; dose end: 97 week; group: cholinesterase; cholinesterase / cholinesterase / cholinesterase / erythrocyte cholinesterase (che) + cholinesterase / cholinesterase / cholinesterase / …
dog [8] = details: Subchronic oral toxicity in nonrodent, beagle, Feed, dose end: 26 week
rat [9] = details: Combined chronic toxicity/carcinogenicity; fischer; Oral; Feed; dose end: 105 week; group: cholinesterase; cholinesterase / cholinesterase / cholinesterase / erythrocyte cholinesterase (che) + cholinesterase / cholinesterase / cholinesterase / …
rat [10] = details: Multigenerational reproductive toxicity study, Crl: CD(SD) BRVAF/Plus, Oral, [Not Specified], dose end: 2 generation
[11] = systemic / in life observation / body weight / body weight + systemic / in life observation / body weight / body weight gain + systemic / …
[12] = systemic / organ weight / liver / relative to body weight
[13] = group: maternal, reproductive / reproductive performance / estrous cycle / length
[14] = group: systemic, systemic / clinical chemistry / gamma glutamyl transferase (ggt) / gamma glutamyl transferase (ggt) + systemic / in life observation / body …
[15] = group: systemic, systemic / organ weight / liver / absolute + systemic / organ weight / liver / relative to body weight
[16] = systemic / in life observation / body weight / body weight + systemic / in life observation / food consumption / food consumption
[17] = group: cholinesterase, cholinesterase / cholinesterase / cholinesterase / plasma cholinesterase (che) + cholinesterase / cholinesterase / cholinesterase / …
[18] = group: systemic, systemic / hematology / erythrocyte (rbc) count differential / erythrocyte (rbc) + systemic / hematology / hemoglobin (hgb) / hemoglobin (…
[19] = group: offspring, systemic / in life observation / body weight / offspring (pup) weight + systemic / in life observation / body weight / offspring (pup) …
[20] = group: parental, systemic / in life observation / body weight / body weight + systemic / in life observation / body weight / body weight gain + systemic / in…
[21] = group: reproductive, reproductive / reproductive performance / implantations / implantations

## COc1ccc(C(=O)c2ccccc2)c(O)c1 [2-Hydroxy-4-methoxybenzophenone]
Mouse [1]; [11]
  LOAEL: > 13900 mg/kg/day
  NOAEL: ≥ 13900 mg/kg/day
Mouse [1]; [12]
  LEL: 629 mg/kg/day
  NEL: < 629 mg/kg/day
Rat [2]; [13]
  LEL: 3260 mg/kg/day
  LOAEL: > 3260 mg/kg/day
  NEL: 1600 mg/kg/day
  NOAEL: ≥ 3260 mg/kg/day
Rat [2]; [14]
  LOAEL: > 3260 mg/kg/day
  NOAEL: ≥ 3260 mg/kg/day
Rat [2]; [15]
  LEL: 196 mg/kg/day
  NEL: < 196 mg/kg/day
Mouse [3]
  LEL: 22.5 mg/kg/day
  LOAEL: > 364 mg/kg/day
  NEL: < 22.5 mg/kg/day
  NOAEL: ≥ 364 mg/kg/day
Rat [4]
  LEL: 25 mg/kg/day
  LOAEL: > 200 mg/kg/day
  NEL: 12.5 mg/kg/day
  NOAEL: ≥ 200 mg/kg/day

## CCCSP(=O)(OCC)Oc1ccc(Br)cc1Cl (stereo unspecified) [Profenofos]
Rat [5]; [16]
  LOAEL: 60 mg/kg/day
  NEL: 10 mg/kg/day
  NOAEL: 30 mg/kg/day
Rat [5]; systemic / in life observation / food consumption / food consumption
  LEL: 30 mg/kg/day
Dog [6]
  LEL: 0.05 mg/kg/day
  LOAEL: 0.05 mg/kg/day
  NEL: < 0.05 mg/kg/day
  NOAEL: < 0.05 mg/kg/day
Mouse [7]
  LEL: 4.54 mg/kg/day
  LOAEL: 4.54 mg/kg/day
  NEL: 0.14 mg/kg/day
  NOAEL: 0.14 mg/kg/day
Dog [8]; group: cholinesterase, cholinesterase / cholinesterase / cholinesterase / plasma cholinesterase (che) + cholinesterase / cholinesterase / cholinesterase / brain …
  NOAEL: 0.005 mg/kg/day
Dog [8]; [17]
  LEL: 0.005 mg/kg/day
  LOAEL: 0.05 mg/kg/day
  NEL: < 0.005 mg/kg/day
Dog [8]; [18]
  LEL: 12.5 mg/kg/day
  LOAEL: > 12.5 mg/kg/day
  NEL: 2.5 mg/kg/day
  NOAEL: ≥ 12.5 mg/kg/day
Rat [9]
  LEL: 1 mg/kg/day
  LOAEL: 1 mg/kg/day
  NEL: 0.03 mg/kg/day
  NOAEL: 0.03 mg/kg/day
Rat [10]; [19]
  LEL: 29 mg/kg/day
  LOAEL: 29 mg/kg/day
  NEL: 7.3 mg/kg/day
  NOAEL: 7.3 mg/kg/day
Rat [10]; [20]
  LEL: 29 mg/kg/day
  LOAEL: 29 mg/kg/day
  NEL: 7.3 mg/kg/day
  NOAEL: 7.3 mg/kg/day
Rat [10]; [21]
  LEL: 29 mg/kg/day
  LOAEL: > 29 mg/kg/day
  NEL: 7.3 mg/kg/day
  NOAEL: ≥ 29 mg/kg/day
